The record followed here is patent publication US11878961B2, “Next generation FKBP52 targeting drugs for the treatment of prostate and breast cancer” (Board of Regents, The University of Texas System, priority 2020, dated 2024).

Assay type in all cases: cell-based
One assay concerns estrogen receptor (ER). The experiment in a line: ER-regulated luciferase reporter assay in T47D-KBluc cells (10 pM E2). Conditions: result in words. The procedure: (§1) FIGS. 20A-20D depict PC257 (ZINC3424402) which inhibits FKBP52-Specific AR, GR and ER-Mediated Activity in accordance with an illustrative embodiment. (FIG. 20A) An in silico screen lead to 107 lead molecules for functional screening that lead to an initial hit molecule PC257 (ZINC3424402). (FIG. 20B) MDA-kb2 cells expressing a stably AR- and GR-response luciferase reporter was treated with 200 pM DHT with a range of PC257 (ZINC3424402) concentrations (0, 0.01, 0.1, 1, 10, 25, 50, and 100 uM) for 16-18 hours in order to test for AR-dependent activity. The graphs represent an average of 4 independent receptor mediated luciferase receptor experiments. (FIG. 20C) MDA-kb2 cells expressing a stably AR- and GR-responsive luciferase reporter was treated with 50 nM DEX with a range of PC257 (ZINC3424402) concentrations (0, 0.01, 0.1, 1, 10, 25, 50, and 100 uM) for 16-18 hours in order to test for GR-dependent activity. The graphs represent an average of 4 independent receptor mediated luciferase receptor experiments. […]
(§2) Referring to FIG. 21, hormone-induced, receptor-dependent luciferase reporter gene expression was assessed in the presence of a range of PC257 concentrations for androgen receptor (AR) and glucocorticoid receptor (GR) in MDAkb2 cells, and for progesterone receptor (PR) and estrogen receptor (ER) in T47D cells. […]
(In general: A reporter such as luciferase makes a cellular process visible.)

Assay [1] deals with FKBP52-regulated AR activity. The experiment in a line: DHT-induced AR-dependent luciferase reporter with or without exogenous FKBP52 in fkbp52-deficient cells. Conditions: presence or absence of exogenous FKBP52; fkbp52-deficient 22Rv1, HeLa and mouse embryonic fibroblast cells. The method, then: Referring to FIG. 22, dihydrotestosterone (DHT)-induced, androgen receptor-dependent luciferase reporter gene expression was assessed in the presence of a range of PC257 concentrations in the presence or absence of exogenous FKBP52 expression in fkbp52-deficient 22Rv1, HeLa, and mouse embryonic fibroblast cells. The IC50 values are indicated. […] PC257 is anticipated to target the PPIase pocket, a highly conserved enzymatic pocket among the FKBP family of proteins.

The next assay relates to androgen receptor (AR). The experiment in a line: AR-mediated luciferase reporter assay in MDA-kb2 cells (200 pM DHT). The method, then: FIGS. 19A-19B depict identification of novel FKBP52-specific hit compounds in accordance with an illustrative embodiment. Structure-based drug design methodology and in silico library screening was used to identify 107 molecules targeting the FKBP52 PPIase pocket. Molecules were assessed for the ability to inhibit AR-mediated luciferase expression at a single high concentration (25 μM) in MDA-kb2 cells. […] MDA-kb2 cells were treated with 200 pM DHT with a range of derivative concentrations. Molecules in the low μM range will be tested in GR-, PR- and ER-Mediated luciferase assays in order to assess GR-dependent activity, PR-dependent activity and to test the effects of ER-regulated activity. A detailed evaluation of all candidate molecules will be tested in multiple cellular and animal models of prostate cancer.
FIGS. 20A-20D depict PC257 (ZINC3424402) which inhibits FKBP52-Specific AR, GR and ER-Mediated Activity in accordance with an illustrative embodiment. […]
as §2

The subject of assay [2] is endogenous AR-dependent gene expression. The experiment in a line: Hormone-dependent FKBP51 and/or PSA protein levels by Western blot and densitometry. Conditions: range of PC257 concentrations, normalized to GAPDH. The procedure: Referring to FIG. 23, hormone-dependent FKBP51 and/or PSA protein levels were assessed by Western blot and densitometry in the indicated cell lines in the presence of a range of PC257 concentrations. GAPDH was used as a loading control and the densitometry data were normalized to GAPDH.
A general note: A western blot detects proteins with antibodies after separation by electrophoresis.

The test system of the next assay is AR nuclear translocation. Nature of the assay: AR nuclear translocation by fluorescence microscopy in 22Rv1 cells. Conditions: 22Rv1 prostate cancer cells, 75 μM, in the presence of hormone. The method, then:
FIG. 24 depicts that PC257 Blocks Androgen-Dependent AR Nuclear Translocation in accordance with an illustrative embodiment.
Referring to FIG. 24, 22Rv1 prostate cancer cells were treated with or without 75 μM in the presence of hormone and AR and FKBP52 cellular localization was assessed by fluorescence microscopy.

The subject of assay [3] is glucocorticoid receptor (GR). The experiment in a line: GR-dependent luciferase reporter assay in MDA-kb2 cells (50 nM DEX). Conditions: MDAkb2 cells, result in words. The procedure: as §1, §2
In assay [4] the test system is progesterone receptor (PR). Nature of the assay: PR-dependent luciferase reporter assay in T47D cells. Conditions: result in words. The method, then: Referring to FIG. 21, hormone-induced, receptor-dependent luciferase reporter gene expression was assessed in the presence of a range of PC257 concentrations for androgen receptor (AR) and glucocorticoid receptor (GR) in MDAkb2 cells, and for progesterone receptor (PR) and estrogen receptor (ER) in T47D cells. The IC50 values for AR, GR and PR inhibition are shown.

“Also recorded” adds a separate entry of the source.

Consider `Cc1cc(C(=O)COC(=O)Cc2n[nH]c(=O)c3ccccc23)c(C)n1C[C@H]1COc2ccccc2O1` [PC257, [2-[1-[[(3S)-2,3-Dihydro-1,4-benzodioxin-3-yl]methyl]-2,5-dimethylpyrrol-3-yl]-2-oxoethyl] 2-(4-oxo-3H-phthalazin-1-yl)acetate], for which, in the assay on estrogen receptor (ER), the “inhibitory activity on ER” value was “no inhibitory activity”. For the same compound, the “preference for FKBP52-regulated AR activity” value in assay [1] is “preferentially targets FKBP52-regulated AR activity with increased potency”. Moreover, the IC50 in the assay on androgen receptor (AR) (MDA-kb2 cell reporter assay, 200 pM DHT, full dose response, read-out: IC50, inhibition of AR activity) came out at 2000 nM. Besides, in the assay with androgen receptor (AR) (MDA-kb2 cells, luciferase reporter, result in words), the “inhibition of AR activity” value is reported as “inhibition of AR activity in the low micromolar range; also recorded: specifically abrogates”. In addition, the “endogenous AR-dependent gene expression (FKBP51/PSA protein)” value in assay [2] was “abrogates endogenous AR-dependent gene expression”. Further, in the assay on AR nuclear translocation, the AR nuclear translocation entry is “significantly inhibits AR nuclear translocation”. In addition, the “inhibition of GR activity” value in assay [3] is “specifically abrogates”. Also, in assay [4], the “inhibition of PR activity” value is recorded as “specifically abrogates”.

The term IC50 denotes the midpoint of a concentration-inhibition curve.
